In patent US7291621B2, “Substituted biaryl amides C5a receptor modulators” (Neurogen Corporation, priority 2002, dated 2007):

Biological target: T1, C5a receptor (Homo sapiens, UniProt P21730)
T1 construct: endogenous in cells; host or cells: U937 cells differentiated with 1 mM dibutyryl cAMP
T1 sequence (P21730 1-350): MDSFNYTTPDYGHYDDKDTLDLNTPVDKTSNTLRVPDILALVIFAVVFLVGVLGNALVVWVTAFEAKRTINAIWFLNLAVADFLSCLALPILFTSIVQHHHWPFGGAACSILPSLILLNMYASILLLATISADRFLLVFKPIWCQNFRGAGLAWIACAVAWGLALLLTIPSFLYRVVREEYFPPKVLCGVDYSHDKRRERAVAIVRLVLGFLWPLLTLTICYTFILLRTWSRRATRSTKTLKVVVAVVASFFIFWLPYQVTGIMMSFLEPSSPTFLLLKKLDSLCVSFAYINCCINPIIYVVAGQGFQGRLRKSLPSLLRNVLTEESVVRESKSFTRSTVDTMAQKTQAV
Test: standard assay of C5a receptor mediated calcium mobilization
Assay type: cell-based
Details: Table I; asterisk = tested in C5a receptor mediated calcium mobilization assay; read-out: Ca2+ Mob.
Experimental: U937 cells are grown in differentiation media (1 mM dibutyrl cAMP in RPMI 1640 medium containing 10% fetal bovine serum) for 48 hrs at 37° C. then reseeded onto 96-well plates suitable for use in a FLIPR™ Plate Reader (Molecular Devices Corp., Sunnyvale Calif.). Cells are grown an additional 24 hours (to 70-90% confluence) before the assay. The cells are then washed once with Krebs Ringer solution. FLUO-3 calcium sensitive dye (Molecular Probes, Inc. Eugene, Oreg.) is added to 10 μg/mL and incubated with the cells at room temperature for 1 to 2 hours. The 96 well plates are then washed to remove excess dye. Fluorescence responses, measured by excitation at 480 nm and emission at 530 nm, are monitored upon the addition of human C5a to the cells to a final concentration of 0.01-30.0 nM, using the FLIPR™ device (Molecular Devices).
The calcium mobilization assay described above may be readily adapted for identifying test compounds that have agonist or antagonist activity at the human C5a receptor.
For example, in order to identify antagonist compounds, differentiated U937 cells are washed and incubated with Fluo-3 dye as described above. One hour prior to measuring the fluorescence signal, a subset of the cells is incubated with 1 μM of at least one compound to be tested. The fluorescence response upon the subsequent addition of 0.3 nM (final concentration) human recombinant C5a is monitored using the FLIPR™ plate reader. Antagonist compounds elicit at least a 2-fold decrease in the fluorescence response relative to that measured in the presence of human C5a alone. Preferred antagonist compounds elicit at least a 5-fold, preferably at least a 10-fold, and more preferably at least a 20-fold decrease in the fluorescence response relative to that measured in the presence of human C5a alone.

SMILES | Ki [nM]
COc1ccc(-c2ccccc2)c(C(=O)N(Cc2ccccc2F)C2Cc3ccccc3C2)c1 [compound 108, N-(indan-2-yl)-N-(2-fluorobenzyl)-4-methoxy-1,1′-biphenyl-2-carboxamide] | < 1000
COc1ccc(-c2ccccc2)c(C(=O)N(Cc2cccc(F)c2)C2Cc3ccccc3C2)c1 [compound 109, N-(indan-2-yl)-N-(3-fluorobenzyl)-4-methoxy-1,1′-biphenyl-2-carboxamide] | < 1000
COc1ccc(-c2ccccc2)c(C(=O)N(Cc2ccc(F)cc2)C2Cc3ccccc3C2)c1 [compound 110, N-(indan-2-yl)-N-(4-fluorobenzyl)-4-methoxy-1,1′-biphenyl-2-carboxamide] | < 1000
COc1ccc(-c2ccccc2)c(C(=O)N(Cc2ccc(F)c(F)c2)C2Cc3ccccc3C2)c1 [compound 111, N-(3,4-difluorobenzyl)-N-(indan-2-yl)-4-methoxy-1,1′-biphenyl-2-carboxamide] | < 1000
O=C(c1c(F)cccc1-c1ccccc1)N(Cc1ccccc1)C1Cc2ccccc2C1 [compound 112, N-benzyl-N-(indan-2-yl)-3-fluoro-1,1′-biphenyl-2-carboxamide] | < 1000
Cc1cccc(-c2ccccc2)c1C(=O)N(Cc1ccccc1)C1Cc2ccccc2C1 [compound 113, N-benzyl-N-(indan-2-yl)-3-methyl-1,1′-biphenyl-2-carboxamide] | < 1000
Cc1ccc(-c2cccc(F)c2C(=O)N(Cc2ccccc2)C2Cc3ccccc3C2)s1 [compound 114, N-benzyl-N-(indan-2-yl)-2-fluoro-6-(5-methylthien-2-yl)benzamide] | < 1000
Cc1ccc(-c2cccc(C)c2C(=O)N(Cc2ccccc2)C2Cc3ccccc3C2)s1 [compound 115, N-benzyl-N-(indan-2-yl)-2-methyl-6-(5-methylthien-2-yl)benzamide] | < 1000
Cc1ccc(-c2ccccc2)c(C(=O)N(Cc2ccccc2)C2Cc3ccccc3C2)c1 [compound 116, N-benzyl-N-(indan-2-yl)-4-methyl-1,1′-biphenyl-2-carboxamide] | < 1000
O=C(c1cc(Cl)ccc1-c1ccccc1)N(Cc1ccccc1)C1Cc2ccccc2C1 [compound 117, N-benzyl-4-chloro-N-(indan-2-yl)-1,1′-biphenyl-2-carboxamide] | < 1000
Cc1ccc(-c2ccsc2)c(C(=O)N(Cc2ccccc2)C2Cc3ccccc3C2)c1 [compound 118, N-benzyl-N-(indan-2-yl)-5-methyl-2-thien-3-ylbenzamide] | < 1000

More lines, now with the values ahead:

Ki [nM] | SMILES
< 1000 | O=C(c1cc(Cl)ccc1-c1ccsc1)N(Cc1ccccc1)C1Cc2ccccc2C1 [compound 119, N-benzyl-5-chloro-N-(indan-2-yl)-2-thien-3-ylbenzamide]
< 1000 | Cc1ccccc1CN(C(=O)c1c(C)cccc1-c1ccccc1)C1Cc2ccccc2C1 [compound 120, N-(indan-2-yl)-3-methyl-N-(2-methylbenzyl)-1,1′-biphenyl-2-carboxamide]
< 1000 | Cc1cccc(CN(C(=O)c2c(C)cccc2-c2ccccc2)C2Cc3ccccc3C2)c1 [compound 121, N-(indan-2-yl)-3-methyl-N-(3-methylbenzyl)-1,1′-biphenyl-2-carboxamide]
< 1000 | Cc1ccc(CN(C(=O)c2c(C)cccc2-c2ccccc2)C2Cc3ccccc3C2)cc1 [compound 122, N-(indan-2-yl)-3-methyl-N-(4-methylbenzyl)-1,1′-biphenyl-2-carboxamide]
< 1000 | Cc1cccc(-c2ccccc2)c1C(=O)N(Cc1ccccc1F)C1Cc2ccccc2C1 [compound 123, N-(indan-2-yl)-N-(2-fluorobenzyl)-3-methyl-1,1′-biphenyl-2-carboxamide]
< 1000 | Cc1cccc(-c2ccccc2)c1C(=O)N(Cc1cccc(F)c1)C1Cc2ccccc2C1 [compound 124, N-(indan-2-yl)-N-(3-fluorobenzyl)-3-methyl-1,1′-biphenyl-2-carboxamide]
< 1000 | Cc1cccc(-c2ccccc2)c1C(=O)N(Cc1ccc(F)cc1)C1Cc2ccccc2C1 [compound 125, N-(indan-2-yl)-N-(4-fluorobenzyl)-3-methyl-1,1′-biphenyl-2-carboxamide]
